Measurements published in patent publication US20140206615A1, “GLP-1 AGONIST AND CARDIOVASCULAR COMPLICATIONS” (NOVO NORDISK A/S, priority 2002, published 2014).

Test system: BNP in heart tissue
Experiment: BNP mRNA and protein levels in cardiac biopsies of STZ-treated pigs (real-time PCR, RIA)
Assay type: in vivo, pig
Settings: streptozotocin (STZ)-treated pigs; 3.3 μg/kg s.c. once daily for 4 weeks; right atrial, left atrial and left ventricular biopsies; FIG. 1
Method: Hearts from 12 streptozotocin (STZ)-treated pigs were collected. The pigs were treated with STZ 2 weeks prior to dosing with either the GLP-1 derivative Arg^34, Lys^26(N^ε-(γ-Glu(N^α-hexadecanoyl)))-GLP-1(7-37) (NN2211) for 4 weeks, dose 3.3 μg/kg s.c. once daily, or vehicle. STZ-treated pigs were either hyperglycemic or glucose intolerant and had impaired insulin secretion upon oral glucose tolerance tests. BNP mRNA and protein levels in cardiac biopsies were measured with real-time PCR and RIA assays, respectively. BNP mRNA levels were normalized by β-actin mRNA levels.
BNP mRNA levels were similar in right atrial (RA), left atrial (LA) and in left ventricular (LV) biopsies from vehicle treated diabetic pigs (−GLP).

Compound: CCCCCCCCCCCCCCCC(=O)N[C@@H](CCC(=O)NCCCC[C@H](NC(=O)[C@H](C)NC(=O)[C@H](C)NC(=O)[C@H](CCC(N)=O)NC(=O)CNC(=O)[C@H](CCC(=O)O)NC(=O)[C@H](CC(C)C)NC(=O)[C@H](Cc1ccc(O)cc1)NC(=O)[C@H](CO)NC(=O)[C@H](CO)NC(=O)[C@@H](NC(=O)[C@H](CC(=O)O)NC(=O)[C@H](CO)NC(=O)[C@@H](NC(=O)[C@H](Cc1ccccc1)NC(=O)[C@@H](NC(=O)CNC(=O)[C@H](CCC(=O)O)NC(=O)[C@H](C)NC(=O)[C@@H](N)Cc1cnc[nH]1)[C@@H](C)O)[C@@H](C)O)C(C)C)C(=O)N[C@@H](CCC(=O)O)C(=O)N[C@@H](Cc1ccccc1)C(=O)N[C@H](C(=O)N[C@@H](C)C(=O)N[C@@H](Cc1c[nH]c2ccccc12)C(=O)N[C@@H](CC(C)C)C(=O)N[C@H](C(=O)N[C@@H](CCCNC(=N)N)C(=O)NCC(=O)N[C@@H](CCCNC(=N)N)C(=O)NCC(=O)O)C(C)C)[C@@H](C)CC)C(=O)O [NN2211, Arg^34, Lys^26(N^ε-(γ-Glu(N^α-hexadecanoyl)))-GLP-1(7-37)]
- levels of BNP (BNP mRNA normalized by β-actin mRNA) in cardiac biopsies vs vehicle: significantly lower
